Measured values from PubChem BioAssay (NCI).
Values joined by “and” are separate entries in the source; they are usually repeats but may differ in a detail not shown here. Equal values may be shown once.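 Grown in 96-well plates, cells were treated for 48 hours with each compound at five concentrations. Insufficient inhibition: endpoint recorded as highest concentration tested. GI50 marks 50% less growth. Definition used: TGI = concentration required for complete inhibition of growth.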

Assays:
Test in all cases: DTP human tumour cell line panel, 48 h
[1] = tested on: HL-60(TB) leukemia
[2] = tested on: NCI/ADR-RES ovarian
[3] = tested on: RPMI-8226 leukemia
[4] = tested on: SF-295 CNS
[5] = tested on: HOP-92 NSCLC
[6] = tested on: SK-OV-3 ovarian
[7] = tested on: M14 melanoma
[8] = tested on: MOLT-4 leukemia
[9] = tested on: MALME-3M melanoma
[10] = tested on: SW-620 colon

SMILES: F
- GI50 [1]: 2360 µM
- TGI [1]: > 6870 µM
- GI50 [2]: 2530 µM
- TGI [2]: > 6870 µM
- GI50 [3]: 3060 µM
- TGI [3]: > 6870 µM
- GI50 [4]: 2050 µM
- TGI [4]: 6380 µM
- GI50 [5]: 1850 µM
- TGI [5]: > 6870 µM
- GI50 [6]: 3680 µM
- TGI [6]: > 6870 µM
- GI50 [7]: 2260 µM
- TGI [7]: 5900 µM
- GI50 [8]: > 6870 µM
- TGI [8]: > 6870 µM
- GI50 [9]: 1920 µM
- TGI [9]: 5060 µM

SMILES: Cc1ccc2c(c1)C(C)Cc1c(ncnc1-n1cnc3ccccc31)N2C (stereo not given)
- GI50 [1]: 0.255 µM
- TGI [1]: 0.705 µM
- GI50 [2]: 0.275 µM
- TGI [2]: 14.8 µM
- GI50 [3]: 0.337 µM
- TGI [3]: 15.9 µM
- GI50 [4]: 0.189 µM
- TGI [4]: 11.8 µM
- GI50 [10]: 0.281 µM
- TGI [10]: 17 µM
- GI50 [5]: 6.76 µM
- TGI [5]: 27.7 µM
- GI50 [6]: 0.475 µM
- TGI [6]: 13.5 µM
- GI50 [7]: 0.242 µM
- TGI [7]: 15.7 µM
- GI50 [8]: 0.426 µM
- TGI [8]: 15 µM

SMILES: COc1ccc(-c2cc(-c3cc(Cl)ccc3Cl)nc3n[nH]c(N)c23)cc1
- GI50 [2]: 18 µM
- TGI [2]: > 100 µM
- GI50 [3]: 22.8 µM
- TGI [3]: 70.2 µM
- GI50 [4]: 6.62 µM
- TGI [4]: > 100 µM
- GI50 [10]: 8.16 µM
- TGI [10]: > 100 µM
- GI50 [5]: 22.3 µM
- TGI [5]: > 100 µM
- GI50 [6]: 34.5 µM
- TGI [6]: > 100 µM
- GI50 [7]: 29.5 µM
- TGI [7]: > 100 µM
- GI50 [8]: 30.9 µM
- TGI [8]: > 100 µM
- GI50 [9]: 46.8 µM
- TGI [9]: > 100 µM

SMILES: COc1cc(C2c3[nH]c4ccccc4c3C[C@H]3COC(=O)N23)cc(OC)c1OC (stereo not given in full)
- GI50 [1]: < 0.01 µM
- TGI [1]: 0.0961 µM and < 0.01 µM
- GI50 [2]: 0.0586 µM and < 0.01 µM
- TGI [2]: 0.265 µM and 0.0902 µM
- GI50 [3]: < 0.01 µM
- TGI [3]: < 0.01 µM
- GI50 [10]: < 0.01 µM
- TGI [10]: > 100 µM
- GI50 [5]: 0.0184 µM
- TGI [5]: > 100 µM
- TGI [7]: 8.97 µM
- GI50 [8]: < 0.01 µM
- GI50 [9]: < 0.01 µM
- TGI [9]: > 100 µM

SMILES: COc1ccc(C2CC(c3cc(OC)c(OC)c(OC)c3)=NO2)cc1OCCCCOc1cc2c(cc1OC)C(=O)N1CCC[C@H]1C=N2 (stereo not given in full)
- GI50 [1]: 1.9 µM
- TGI [1]: 4.54 µM
- GI50 [2]: 6.95 µM
- TGI [2]: 37.5 µM
- GI50 [3]: 1.43 µM
- TGI [3]: 4.31 µM
- GI50 [10]: 1.55 µM
- TGI [10]: 3.15 µM
- GI50 [5]: 2.47 µM
- TGI [5]: 10.3 µM
- GI50 [6]: 3.37 µM
- TGI [6]: 9.46 µM
- GI50 [7]: 1.73 µM
- TGI [7]: 3.45 µM
- GI50 [8]: 1.85 µM
- TGI [8]: 4.61 µM

SMILES: CC(=O)N[C@@H](Cc1ccc(OP(=O)(O)O)cc1)C(=O)N[C@H]1CCC(=O)N2CCC[C@@H](C(=O)NCc3ccc(Cl)cc3)N2C1=O
- GI50 [1]: > 25 µM
- TGI [1]: > 25 µM
- GI50 [2]: > 25 µM
- TGI [2]: > 25 µM
- GI50 [3]: > 25 µM
- TGI [3]: > 25 µM
- GI50 [4]: > 25 µM
- TGI [4]: > 25 µM
- GI50 [10]: > 25 µM
- TGI [10]: > 25 µM
- GI50 [6]: > 25 µM
- TGI [6]: > 25 µM
- GI50 [7]: > 25 µM
- TGI [7]: > 25 µM
- GI50 [8]: > 25 µM
- TGI [8]: > 25 µM
- GI50 [9]: > 25 µM
- TGI [9]: > 25 µM

SMILES: N=C(N)c1ccc(OCc2cccc(COc3ccc(C(=N)N)cc3)c2)cc1
- GI50 [2]: > 100 µM
- TGI [2]: > 100 µM
- GI50 [3]: 3.11 µM
- TGI [3]: 7.88 µM
- GI50 [4]: 2.82 µM
- TGI [4]: 9.35 µM
- GI50 [10]: 5.64 µM
- TGI [10]: 21.3 µM
- GI50 [5]: 3.01 µM
- TGI [5]: 9.32 µM
- GI50 [6]: 18.4 µM
- TGI [6]: 50.9 µM
- GI50 [7]: 2.83 µM
- TGI [7]: 7.35 µM
- GI50 [8]: 16.3 µM
- TGI [8]: 45.4 µM
- GI50 [9]: 1.77 µM
- TGI [9]: 6.01 µM
